This is an account of results in patent publication US10752587B2, “Homobispiperidinyl derivatives as liver X receptor beta agonists, compositions and their use” (Merck Sharp & Dohme Corp., priority 2015, dated 2020).

Assay [1] concerns the target T1, glutathione-S-transferase (GST) tagged LXRbeta LBD (ligand binding domain) (Homo sapiens, UniProt P55055).
T1 construct: purchased Invitrogen pv4658.pps
T1 sequence (P55055 222-460 limits assumed): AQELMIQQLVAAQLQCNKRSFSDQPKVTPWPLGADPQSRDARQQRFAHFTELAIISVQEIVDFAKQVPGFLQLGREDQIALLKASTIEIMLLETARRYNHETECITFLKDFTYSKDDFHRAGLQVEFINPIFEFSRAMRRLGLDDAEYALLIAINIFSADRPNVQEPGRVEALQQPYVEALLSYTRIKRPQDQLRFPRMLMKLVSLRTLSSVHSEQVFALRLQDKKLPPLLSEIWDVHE
Put plainly: LanthaScreen TR-FRET Liver X Receptor Coactivator Assay, co-activator recruitment to LXRbeta LBD. Type of assay: biochemical. The conditions noted are these: for Emax: efficacy at max dose, in relation to reference dual agonist T0901317, read-out: LXR beta Activity @ max dose (%); for EC50: potency (Inflection Point, IP), co-activator recruitment to LXRbeta LBD, in relation to T0901317, read-out: LXR beta IP. The essentials:
(§1)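 Compound-induced coactivator recruitment by the GST-fused ligand binding domain, detected as TR-FRET between Tb-labelled anti-GST antibody and fluorescein-tagged coactivator peptide after room-temperature incubation. IP and Emax expressed versus T0901317 as reference agonist.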
A general note: Time-resolved FRET reads energy transfer from a long-lived donor to a nearby acceptor.

Assay [2] addresses T2, glutathione-S-transferase (GST) tagged LXRalpha LBD (ligand binding domain) (Homo sapiens, UniProt Q13133).
T2 construct: purchased Invitrogen pv4655
T2 sequence (Q13133 209-447 limits assumed): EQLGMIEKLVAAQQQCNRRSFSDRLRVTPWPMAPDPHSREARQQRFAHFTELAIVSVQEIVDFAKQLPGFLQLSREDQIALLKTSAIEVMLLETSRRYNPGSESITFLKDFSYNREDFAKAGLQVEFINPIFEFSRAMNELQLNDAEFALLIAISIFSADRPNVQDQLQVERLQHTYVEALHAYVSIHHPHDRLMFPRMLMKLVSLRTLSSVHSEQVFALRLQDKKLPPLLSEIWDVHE
Put plainly: LanthaScreen TR-FRET Liver X Receptor Coactivator Assay, co-activator recruitment to LXRalpha LBD. Type of assay: biochemical. To be noted: for Emax: efficacy at max dose, in relation to reference dual agonist T0901317, read-out: LXR alpha Activity @ max dose (%); for LXR alpha IP (nM) / EC50: potency (Inflection Point, IP), co-activator recruitment to LXRalpha LBD, in relation to T0901317; for EC50: read-out: LXR alpha IP. The gist of the method: as §1

Consider `COc1cccc([C@@](O)(C(=O)N2CCC(C)(CC3CCN(c4ccc(C(=O)N(C)C)c(Cl)c4)CC3)CC2)C(F)(F)F)c1` [Example 2-45, 2-chloro-N,N-dimethyl-4-[4-({4-methyl-1-[(2R)-3,3,3-trifluoro-2-hydroxy-2-(3-methoxyphenyl)propanoyl]piperidin-4-yl}methyl)piperidin-1-yl]benzamide], for which, in assay [1], the Emax turned out to be 18% and the EC50 was determined as 7 nM. Also, in assay [2], the Emax was determined as 0% and the “LXR alpha IP (nM)” value is listed as “NO IP”.
As for `CN(C)C(=O)c1ccc(N2CCC(OC3CCN(C(=O)[C@](O)(c4cc(Cl)cc(Cl)c4)C(F)(F)F)CC3)CC2)cc1Cl` [Example 2-46, 2-chloro-4-[4-({1-[(2R)-2-(3,5-dichloro-phenyl)-3,3,3-trifluoro-2-hydroxy-propanoyl]piperidin-4-yl}oxy)piperidin-1-yl]-N,N-dimethyl-benzamide], the Emax worked out at 102% in assay [1] and 31% in assay [2]. Further, the EC50 was determined as 9 nM in assay [1] and 216 nM in assay [2].
Take `CN(C)C(=O)c1ccc(N2CCC(CC3(C)CCN(C(=O)[C@](O)(c4cccc(Cl)c4)C(F)(F)F)CC3)CC2)cc1Cl` [Example 2-47, 2-chloro-4-[4-({1-[(2R)-2-(3-chloro-phenyl)-3,3,3-trifluoro-2-hydroxy-propanoyl]-4-methyl-piperidin-4-yl}methyl)piperidin-1-yl]-N,N-dimethyl-benzamide]: in assay [1], the Emax is 49% and the EC50 was found to be 4 nM. Moreover, in assay [2], the Emax worked out at 7% and the “LXR alpha IP (nM)” value is “NO IP”.
As for `COc1cc(Cl)cc([C@@](O)(C(=O)N2CCC(C)(CC3CCN(c4ccc(C(=O)N(C)C)c(Cl)c4)CC3)CC2)C(F)(F)F)c1` [Example 2-48, 2-chloro-4-[4-({1-[(2R)-2-(3-chloro-5-methoxyphenyl)-3,3,3-trifluoro-2-hydroxy-propanoyl]-4-methyl-piperidin-4-yl}methyl)piperidin-1-yl]-N,N-dimethyl-benzamide], in assay [1], the Emax was found to be 30% and the EC50 amounted to 27 nM. Moreover, in assay [2], the Emax came out at 0% and the “LXR alpha IP (nM)” value was “NO IP”.
The like results for `COc1cc(F)cc([C@@](O)(C(=O)N2CCC(C)(CC3CCN(c4ccc(C(=O)N(C)C)c(Cl)c4)CC3)CC2)C(F)(F)F)c1` [Example 2-49, 2-chloro-N,N-dimethyl-4-[4-({4-methyl-1-[(2R)-3,3,3-trifluoro-2-(3-fluoro-5-methoxyphenyl)-2-hydroxy-propanoyl]piperidin-4-yl}methyl)piperidin-1-yl]benzamide] were, in that order, 59%, 6 nM, 5% and “NO IP”.
Taken in the same sequence, the figures for `CCOc1cccc([C@@](O)(C(=O)N2CCC(C)(CC3CCN(c4ccc(C(=O)N(C)C)c(Cl)c4)CC3)CC2)C(F)(F)F)c1` [Example 2-50, 2-chloro-4-[4-({1-[(2R) 2-(3-ethoxy-phenyl)-3,3,3-trifluoro-2-hydroxy-propanoyl]-4-methyl-piperidin-4-yl}methyl)piperidin-1-yl]-N,N-dimethyl-benzamide] were 29%, 8 nM, 0% and “NO IP”.
Consider `CN(C)C(=O)c1ccc(N2CCC(CC3(C)CCN(C(=O)[C@](O)(c4cccc(OC(F)(F)F)c4)C(F)(F)F)CC3)CC2)cc1Cl` [Example 2-51, 2-chloro-N,N-dimethyl-4-{4-[(4-methyl-1-{(2R)-3,3,3-trifluoro-2-hydroxy-2-[3-(trifluoro-methoxy)phenyl]propanoyl}piperidin-4-yl)methyl]piperidin-1-yl}benzamide], for which, in assay [1], the Emax is 57% and the EC50 was found to be 32 nM. Besides, in assay [2], the Emax came out at 11% and the “LXR alpha IP (nM)” value is reported as “NO IP”.
The like results for `CCc1cccc([C@@](O)(C(=O)N2CCC(C)(CC3CCN(c4ccc(C(=O)N(C)C)c(Cl)c4)CC3)CC2)C(F)(F)F)c1` [Example 2-52, 2-chloro-4-[4-({1-[(2R)-2-(3-ethyl-phenyl)-3,3,3-trifluoro-2-hydroxy-propanoyl]-4-methyl-piperidin-4-yl}methyl)piperidin-1-yl]-N,N-dimethyl-benzamide] were, in that order, 20%, 15 nM, 0% and “NO IP”.
`CN(C)C(=O)c1ccc(N2CCC(CC3(C)CCN(C(=O)[C@](O)(c4cc(Cl)cc(Cl)c4)C(F)(F)F)CC3)CC2)cc1Cl` [Example 2-53, 2-chloro-4-[4-({1-[(2R)-2-(3,5-dichloro-phenyl)-3,3,3-trifluoro-2-hydroxy-propanoyl]-4-methylpiperidin-4-yl}methyl)piperidin-1-yl]-N,N-dimethyl-benzamide]: in assay [1], the Emax turned out to be 50% and the EC50 stood at 5 nM. Moreover, in assay [2], the Emax was found to be 0% and the “LXR alpha IP (nM)” value is recorded as “NO IP”.
With `CN(C)C(=O)c1ccc(N2CCC(CC3(C)CCN(C(=O)[C@](O)(c4cc(F)cc(Cl)c4)C(F)(F)F)CC3)CC2)cc1Cl` [Example 2-54, 2-chloro-4-[4-({1-[(2R)-2-(3-chloro-5-fluorophenyl)-3,3,3-trifluoro-2-hydroxy-propanoyl]-4-methylpiperidin-4-yl}methyl)piperidin-1-yl]-N,N-dimethyl-benzamide], in assay [1], the Emax was found to be 79% and the EC50 stood at 4 nM. Further, in assay [2], the Emax is 23% and the EC50 was 38 nM.
Take `CC(C)Oc1cccc([C@@](O)(C(=O)N2CCC(C)(CC3CCN(c4ccc(C(=O)N(C)C)c(Cl)c4)CC3)CC2)C(F)(F)F)c1` [Example 2-55, 2-chloro-N,N-dimethyl-4-{4-[(4-methyl-1-{(2R)-3,3,3-trifluoro-2-hydroxy-2-[3-(1-methyl-ethoxy)phenyl]propanoyl}piperidin-4-yl)methyl]piperidin-1-yl}benzamide]: in assay [1], the Emax is 44% and the EC50 worked out at 8 nM. For the same compound, in assay [2], the Emax came to 0% and the “LXR alpha IP (nM)” value was “NO IP”.
In the case of `CC(C)c1cccc([C@@](O)(C(=O)N2CCC(C)(CC3CCN(c4ccc(C(=O)N(C)C)c(Cl)c4)CC3)CC2)C(F)(F)F)c1` [Example 2-56, 2-chloro-N,N-dimethyl-4-{4-[(4-methyl-1-{(2R)-3,3,3-trifluoro-2-hydroxy-2-[3-(1-methylethyl)phenyl]propanoyl}piperidin-4-yl)methyl]piperidin-1-yl}benzamide], in assay [1], the Emax stood at 37% and the EC50 is 18 nM. Besides, in assay [2], the Emax stood at 2% and the “LXR alpha IP (nM)” value is reported as “NO IP”.
With `CN(C)C(=O)c1ccc(N2CCC(CC3(C)CCN(C(=O)[C@](O)(c4cccc(F)c4)C(F)(F)F)CC3)CC2)cc1Cl` [Example 2-57, 2-chloro-N,N-dimethyl-4-[4-({4-methyl-1-[(2R)-3,3,3-trifluoro-2-(3-fluorophenyl)-2-hydroxy-propanoyl]piperidin-4-yl}methyl)piperidin-1-yl]benzamide], in assay [1], the Emax was 67% and the EC50 was found to be 5 nM. For the same compound, in assay [2], the Emax was 27% and the EC50 amounted to 37 nM.
